From patent publication US8173697B2, “Alkoxyalkyl-substituted cyclic keto-enols” (Bayer CropScience AG, priority 2006, dated 2012)

Tests used:
Assay type in all cases: in vivo
Myzus persicae = Myzus persicae test, activity boost through ammonium/phosphonium salts and penetration promoters (Example 11)
Protocol: For application with ammonium salts or phosphonium salts and penetration promoters (rapeseed oil methyl ester 500 EW) these are in each case added in a concentration of 1000 ppm to the spray liquor.
(§1) After the desired time the destruction in % is determined.

Aphis gossypii = Aphis gossypii test (Example 12); conditions: for Destruction (%) after 6 d: no additive
Protocol: For application with ammonium salts or phosphonium salts and penetration promoters (rapeseed oil methyl ester 500 EW) these are in each case added in a concentration of 1000 ppm a.i. to the spray liquor.
as §1

Maize - Arsenal = assay: Greenhouse container trials with maize, pre-emergence, with and without safener; conditions: 28 days after application
Text: Seeds of monocotyledonous and dicotyledonous weed plants and crop plants are placed in sandy loam soil in wood fibre pots or in plastic pots and are covered with earth. The test compounds, formulated as wettable powders (WP) or liquids (EC), are sprayed onto the soil surface in various dosages, with a water application rate of 300 l/ha (converted). The pots are then placed in a greenhouse under good growth conditions, and also, during the vegetation period, are placed outdoors, outside of the greenhouse, so that the plants are able to germinate and develop. 3 to 4 weeks after the trial plants have been treated, the effect of the products is rated visually in comparison to untreated controls (herbicidal effect in percent: 100% effect=plants have died, 0% effect=like control plants).
(§2) If the testing is also to look at whether safeners can improve the tolerance of the crop plants for test substances, the following options are used for the application of the safener: • seeds of the crop plants are dressed with the safener substance prior to sowing (the amount of safener is stated as a percentage, based on the seed weight) • pots containing the crop plants are sprayed with the safener, with a defined application rate per hectare, prior to application of the test substances • the safener is applied together with the test substance in the form of a tank mix (the amount of safener is reported in g/ha or as a proportion relative to the herbicide).
(§3) By comparing the effect of test substances on crop plants which have been treated with safener and without safener it is possible to assess the effect of the safener substance.

Spring wheat = assay: Greenhouse container trials with cereals, post-emergence, with and without safener; conditions: 10 days after application
Protocol: (§4) Seeds of monocotyledonous and dicotyledonous weed plants and crop plants are placed in sandy loam soil in wood fibre pots or in plastic pots and are covered with earth and cultivated in a greenhouse and also, during the vegetation period, outdoors, outside of the greenhouse, under good growth conditions. 2 to 3 weeks after sowing, the trial plants are treated at the one- to three-leaf stage. The test compounds, formulated as wettable powders (WP) or liquids (EC), are sprayed onto the plants and the soil surface in various dosages, with a water application rate of 300 l/ha (converted) and with addition of wetting agent (0.2% to 0.3%). […]
as §2, with “weight) • crop plants” for “weight) • pots containing the crop plants”, “test substances (typically 1 day before the test substances are applied) • the” for “test substances • the”
as §3

Spring barley = assay: as above
Protocol: as §4
as §2, with “weight) • crop plants” for “weight) • pots containing the crop plants”, “test substances (typically 1 day before the test substances are applied) • the” for “test substances • the”
as §3

[1] = 20 ppm, no additive, bell pepper plants

COCC1(C)NC(=O)C(c2cc(-c3ccc(Cl)cc3)ccc2C)=C1O (stereo not shown) [I-a-1]
Destruction (%) after 6 d (Myzus persicae; 4 ppm, +AS 1000 ppm): 0% | Destruction (%) after 6 d (Myzus persicae; 4 ppm, +AS +RME 1000 ppm each): 75% | Destruction (%) after 6 d (Myzus persicae; 4 ppm, +RME 1000 pm): 35% | Destruction (%) after 6 d (Myzus persicae; 4 ppm, no additive, bell pepper plants): 0% | Destruction (%) after 6 d (Myzus persicae; 20 ppm, +AS 1000 ppm): 65% | Destruction (%) after 6 d (Myzus persicae; 20 ppm, +AS +RME 1000 ppm each): 99% | Destruction (%) after 6 d (Myzus persicae; 20 ppm, +RME 1000 pm): 98% | Destruction (%) after 6 d (Myzus persicae; [1]): 0% | Destruction (%) after 6 d +AS 1000 ppm (Aphis gossypii; 20 ppm active compound): 20% | Destruction (%) after 6 d +AS +RME 1000 ppm each (Aphis gossypii; 20 ppm active compound): 85% | Destruction (%) after 6 d +RME 1000 pm (Aphis gossypii; 20 ppm active compound): 5% | Destruction (%) after 6 d (Aphis gossypii; 20 ppm active compound): 5% | Destruction (%) after 6 d +AS 1000 ppm (Aphis gossypii; 100 ppm active compound): 90% | Destruction (%) after 6 d +AS +RME 1000 ppm each (Aphis gossypii; 100 ppm active compound): 90% | Destruction (%) after 6 d +RME 1000 pm (Aphis gossypii; 100 ppm active compound): 90% | Destruction (%) after 6 d (Aphis gossypii; 100 ppm active compound): 60%

COCC1(C)NC(=O)C(c2cc(-c3ccc(F)cc3)ccc2C)=C1O (stereo not shown) [I-a-12]
Destruction (%) after 6 d (Myzus persicae; 20 ppm, +AS 1000 ppm): 0% | Destruction (%) after 6 d (Myzus persicae; 20 ppm, +AS +RME 1000 ppm each): 99% | Destruction (%) after 6 d (Myzus persicae; 20 ppm, +RME 1000 pm): 45% | Destruction (%) after 6 d (Myzus persicae; [1]): 10% | Destruction (%) after 6 d (Myzus persicae; 100 ppm, +AS 1000 ppm): 98% | Destruction (%) after 6 d (Myzus persicae; 100 ppm, +AS +RME 1000 ppm each): 99% | Destruction (%) after 6 d (Myzus persicae; 100 ppm, +RME 1000 pm): 99% | Destruction (%) after 6 d (Myzus persicae; 100 ppm, no additive, bell pepper plants): 85%

CCOC(=O)OC1=C(c2c(C)cc(-c3ccc(Cl)cc3)cc2CC)C(=O)NC1(C)COC (stereo not shown) [I-c-1]
Maize - Arsenal observed (%) (Maize - Arsenal; 50 g a.i./ha): 55%

CCc1cc(-c2ccc(Cl)cc2)cc(CC)c1C1=C(OC(=O)C(C)C)C(C)(COC)NC1=O (stereo not shown) [I-b-2]
Maize - Arsenal observed (%) (Maize - Arsenal; 25 g a.i./ha): 40% | Maize - Arsenal observed (%) (Maize - Arsenal; 50 g a.i./ha): 50%

COCC1(C)NC(=O)C(c2c(C)ccc(-c3ccc(Cl)cc3)c2C)=C1O (stereo not shown) [I-a-7]
Destruction (%) after 6 d +AS 1000 ppm (Aphis gossypii; 20 ppm active compound): 10% | Destruction (%) after 6 d +AS +RME 1000 ppm each (Aphis gossypii; 20 ppm active compound): 90% | Destruction (%) after 6 d +RME 1000 pm (Aphis gossypii; 20 ppm active compound): 70% | Destruction (%) after 6 d (Aphis gossypii; 20 ppm active compound): 5%

CCc1cc(-c2ccc(C)cc2)cc(C)c1C1=C(OC(=O)C(C)C)C(C)(COC)NC1=O (stereo not shown) [I-b-5]
Spring wheat observed (%) (Spring wheat; 50 g a.i./ha): 10% | Spring wheat observed (%) (Spring wheat; 100 g a.i./ha): 15% | Spring barley observed (%) (Spring barley; 25 g a.i./ha, 28 days after application): 10% | Spring barley observed (%) (Spring barley; 50 g a.i./ha, 10 days after application): 50% | Spring barley observed (%) (Spring barley; 100 g a.i./ha, 10 days after application): 65% | Spring barley observed (%) (Spring barley; 100 g a.i./ha, 28 days after application): 30%
